Test system: 883617-216-R-J1-PDC complex spheroid viability
Experiment: Anticancer human tumor 883617-216-R-J1-PDC patient-derived bladder carcinoma cell line growth inhibition [POLQ]
Conditions: for IC50: curve of first compound; for viability, T/C: stronger effect = lower value
Outline: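 Patient-derived tumour cells were co-cultured with HUVEC and mesenchymal stem cells as multicellular spheroids at 37 °C. They were treated with POLQ inhibitors (novobiocin, ART-558, RP6685) alone or combined with other agents. Top concentrations were at or near clinical Cmax (otherwise 10 microM; SN-38 at 1 microM), decreasing in half-log steps.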

[1] = second compound 0.0316 µM, first compound 0.00316 µM
[2] = second compound 0.0316 µM, first compound 0.01 µM
[3] = second compound 0.0316 µM, first compound 0.0316 µM
[4] = second compound 0.0316 µM, first compound 0.1 µM
[5] = second compound 0.1 µM, first compound 0.00316 µM
[6] = second compound 0.1 µM, first compound 0.01 µM
[7] = second compound 0.1 µM, first compound 0.0316 µM
[8] = second compound 0.1 µM, first compound 0.1 µM
[9] = second compound 0.316 µM, first compound 0.00316 µM
[10] = second compound 0.316 µM, first compound 0.01 µM
[11] = second compound 0.316 µM, first compound 0.0316 µM
[12] = second compound 0.316 µM, first compound 0.1 µM
[13] = second compound 1 µM, first compound 0.00316 µM
[14] = second compound 1 µM, first compound 0.01 µM
[15] = second compound 1 µM, first compound 0.0316 µM
[16] = second compound 1 µM, first compound 0.1 µM
[17] = second compound 3.16 µM, first compound 0.00316 µM
[18] = second compound 3.16 µM, first compound 0.01 µM
[19] = second compound 3.16 µM, first compound 0.0316 µM
[20] = second compound 3.16 µM, first compound 0.1 µM
[21] = second compound 10 µM, first compound 0.00316 µM
[22] = second compound 10 µM, first compound 0.01 µM
[23] = second compound 10 µM, first compound 0.0316 µM
[24] = second compound 10 µM, first compound 0.1 µM
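Note: spheroids exposed to compounds for seven days before readout.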
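Throughout, for viability, T/C: 100% = DMSO vehicle control viability.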

Q: How did the IC50 (second compound 0.0316 µM) turn out when `CC[C@@]1(O)C(=O)OCc2c1cc1n(c2=O)Cc2cc3c(CN(C)C)c(O)ccc3nc2-1` + COC1C(OC(N)=O)C(O)C(Oc2ccc3c(O)c(NC(=O)c4ccc(O)c(CC=C(C)C)c4)c(=O)oc3c2C)OC1(C)C was run?
A: Its IC50 is > 100 nM.

Q: And the IC50 (second compound 0.1 µM)?
A: Its IC50 is > 100 nM.

Q: And the IC50 (second compound 0.316 µM)?
A: The IC50 was > 100 nM.

Q: What about the IC50 (second compound 1 µM) of the same compound?
A: The IC50 was > 100 nM.

Q: What about the IC50 (second compound 3.16 µM) of the same compound?
A: Its IC50 is > 100 nM.

Q: What about the IC50 (second compound 10 µM) of the same compound?
A: The IC50 was > 100 nM.

Q: And the viability, T/C (second compound 0.0316 µM, first compound 0.000316 µM)?
A: Its viability, T/C is 110%.

Q: What about the viability, T/C (second compound 0.0316 µM, first compound 0.001 µM) of the same compound?
A: The viability, T/C was 98.5%.

Q: What about the viability, T/C [1] of the same compound?
A: Its viability, T/C is 94.7%.

Q: What about the viability, T/C [2] of the same compound?
A: The viability, T/C was 89.1%.

Q: What about the viability, T/C [3] of the same compound?
A: Its viability, T/C is 67.4%.

Q: And the viability, T/C [4]?
A: The viability, T/C was 65.2%.

Q: What about the viability, T/C (second compound 0.1 µM, first compound 0.000316 µM) of the same compound?
A: The viability, T/C was 108%.

Q: What about the viability, T/C (second compound 0.1 µM, first compound 0.001 µM) of the same compound?
A: Its viability, T/C is 110%.

Q: What about the viability, T/C [5] of the same compound?
A: The viability, T/C was 91.7%.

Q: And the viability, T/C [6]?
A: The viability, T/C was 85.8%.

Q: And the viability, T/C [7]?
A: The viability, T/C was 55.2%.

Q: What about the viability, T/C [8] of the same compound?
A: Its viability, T/C is 60.6%.

Q: And the viability, T/C (second compound 0.316 µM, first compound 0.000316 µM)?
A: Its viability, T/C is 95.9%.

Q: What about the viability, T/C (second compound 0.316 µM, first compound 0.001 µM) of the same compound?
A: The viability, T/C was 101%.

Q: And the viability, T/C [9]?
A: The viability, T/C was 87.1%.

Q: And the viability, T/C [10]?
A: Its viability, T/C is 81.6%.

Q: And the viability, T/C [11]?
A: The viability, T/C was 58%.

Q: What about the viability, T/C [12] of the same compound?
A: The viability, T/C was 65%.

Q: What about the viability, T/C (second compound 1 µM, first compound 0.000316 µM) of the same compound?
A: Its viability, T/C is 94.9%.

Q: What about the viability, T/C (second compound 1 µM, first compound 0.001 µM) of the same compound?
A: The viability, T/C was 96.8%.

Q: And the viability, T/C [13]?
A: The viability, T/C was 89.7%.

Q: And the viability, T/C [14]?
A: The viability, T/C was 82.3%.

Q: What about the viability, T/C [15] of the same compound?
A: The viability, T/C was 57.3%.

Q: And the viability, T/C [16]?
A: The viability, T/C was 61.7%.

Q: And the viability, T/C (second compound 3.16 µM, first compound 0.000316 µM)?
A: The viability, T/C was 107%.

Q: And the viability, T/C (second compound 3.16 µM, first compound 0.001 µM)?
A: The viability, T/C was 89.6%.

Q: And the viability, T/C [17]?
A: The viability, T/C was 93.4%.

Q: And the viability, T/C [18]?
A: Its viability, T/C is 78%.

Q: And the viability, T/C [19]?
A: The viability, T/C was 65.2%.

Q: What about the viability, T/C [20] of the same compound?
A: Its viability, T/C is 57.1%.

Q: What about the viability, T/C (second compound 10 µM, first compound 0.000316 µM) of the same compound?
A: The viability, T/C was 104%.

Q: What about the viability, T/C (second compound 10 µM, first compound 0.001 µM) of the same compound?
A: The viability, T/C was 90.9%.

Q: And the viability, T/C [21]?
A: Its viability, T/C is 95.3%.

Q: And the viability, T/C [22]?
A: The viability, T/C was 88%.

Q: And the viability, T/C [23]?
A: Its viability, T/C is 65.6%.

Q: And the viability, T/C [24]?
A: The viability, T/C was 64.9%.

Q: `CCc1c2c(nc3ccc(O)cc13)-c1cc3c(c(=O)n1C2)COC(=O)[C@]3(O)CC` + COC1C(OC(N)=O)C(O)C(Oc2ccc3c(O)c(NC(=O)c4ccc(O)c(CC=C(C)C)c4)c(=O)oc3c2C)OC1(C)C was tested. Which IC50 (second compound 0.0316 µM) did it give?
A: The IC50 was 98 nM.

Q: What about the IC50 (second compound 0.1 µM) of the same compound?
A: Its IC50 is 104 nM.

Q: And the IC50 (second compound 0.316 µM)?
A: The IC50 was 60.2 nM.

Q: What about the IC50 (second compound 1 µM) of the same compound?
A: The IC50 was 78.4 nM.

Q: And the IC50 (second compound 3.16 µM)?
A: Its IC50 is 108 nM.

Q: What about the IC50 (second compound 10 µM) of the same compound?
A: The IC50 was 99.5 nM.

Q: And the viability, T/C [1]?
A: Its viability, T/C is 63.7%.

Q: What about the viability, T/C [2] of the same compound?
A: The viability, T/C was 57.6%.

Q: And the viability, T/C [3]?
A: The viability, T/C was 67.5%.

Q: What about the viability, T/C [4] of the same compound?
A: Its viability, T/C is 47.6%.

Q: What about the viability, T/C (second compound 0.0316 µM, first compound 0.316 µM) of the same compound?
A: The viability, T/C was 33.5%.

Q: And the viability, T/C (second compound 0.0316 µM, first compound 1 µM)?
A: Its viability, T/C is 25.2%.

Q: What about the viability, T/C [5] of the same compound?
A: The viability, T/C was 58.6%.

Q: What about the viability, T/C [6] of the same compound?
A: The viability, T/C was 59.3%.

Q: And the viability, T/C [7]?
A: The viability, T/C was 59.9%.

Q: What about the viability, T/C [8] of the same compound?
A: The viability, T/C was 49.7%.

Q: What about the viability, T/C (second compound 0.1 µM, first compound 0.316 µM) of the same compound?
A: Its viability, T/C is 33.6%.

Q: And the viability, T/C (second compound 0.1 µM, first compound 1 µM)?
A: The viability, T/C was 20.7%.

Q: And the viability, T/C [9]?
A: The viability, T/C was 70.1%.

Q: And the viability, T/C [10]?
A: The viability, T/C was 62.3%.

Q: And the viability, T/C [11]?
A: The viability, T/C was 55.1%.

Q: And the viability, T/C [12]?
A: Its viability, T/C is 49.1%.

Q: And the viability, T/C (second compound 0.316 µM, first compound 0.316 µM)?
A: The viability, T/C was 31.6%.

Q: What about the viability, T/C (second compound 0.316 µM, first compound 1 µM) of the same compound?
A: The viability, T/C was 29.7%.

Q: And the viability, T/C [13]?
A: The viability, T/C was 68.7%.

Q: What about the viability, T/C [14] of the same compound?
A: The viability, T/C was 59.2%.

Q: What about the viability, T/C [15] of the same compound?
A: The viability, T/C was 61.4%.

Q: And the viability, T/C [16]?
A: Its viability, T/C is 46.9%.

Q: And the viability, T/C (second compound 1 µM, first compound 0.316 µM)?
A: Its viability, T/C is 33.6%.

Q: What about the viability, T/C (second compound 1 µM, first compound 1 µM) of the same compound?
A: The viability, T/C was 21.1%.

Q: What about the viability, T/C [17] of the same compound?
A: Its viability, T/C is 66.8%.

Q: And the viability, T/C [18]?
A: Its viability, T/C is 58%.

Q: What about the viability, T/C [19] of the same compound?
A: The viability, T/C was 60.2%.

Q: And the viability, T/C [20]?
A: The viability, T/C was 51.8%.

Q: What about the viability, T/C (second compound 3.16 µM, first compound 0.316 µM) of the same compound?
A: The viability, T/C was 35%.

Q: And the viability, T/C (second compound 3.16 µM, first compound 1 µM)?
A: Its viability, T/C is 21.1%.

Q: And the viability, T/C [21]?
A: The viability, T/C was 71%.

Q: And the viability, T/C [22]?
A: Its viability, T/C is 56%.

Q: What about the viability, T/C [23] of the same compound?
A: The viability, T/C was 63.3%.

Q: What about the viability, T/C [24] of the same compound?
A: Its viability, T/C is 46.2%.

Q: And the viability, T/C (second compound 10 µM, first compound 0.316 µM)?
A: The viability, T/C was 42%.

Q: What about the viability, T/C (second compound 10 µM, first compound 1 µM) of the same compound?
A: The viability, T/C was 21.7%.

Source: PubChem BioAssay AID1963833 (Molecular Pharmacology Branch, DTP, NCI, 2024)
